Activity calls are given as the source filed them. No rule for the calls is given here.

The subject of this assay is Leishmania donovani growth inhibition. Put plainly: antileishmanial activity against L. donovani parasites (AID 1159560).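 Also: parasites exposed to compound for 72 h before the viability read.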
In the case of `OCCCNc1nc(Nc2ccncc2)nc2ccccc12`, the IC50 (in general, the point on the concentration scale where inhibition reaches its midpoint) is 40 µM. Take `CCn1nccc1CN(C)C(=O)C=Cc1ccc(Cl)cc1`: the IC50 is 16 µM.

As to `Cc1nnnn1-c1cccc(C(=O)N2CCC[C@@]3(C)c4ncncc4CCC23)c1` (some centres undefined), the IC50 was 0.4 µM. With `COc1cccc(S(=O)(=O)Nc2ccc3c(c2)CC(N2CCC(NC(=O)C4CC4)CC2)C3)c1` (centres undefined) the figure was > 50 µM (inactive); with `O=C(NCC(c1cccs1)N1CCOCC1)c1ccc([N+](=O)[O-])o1` (centres undefined), 32 µM; with `CC(=O)Nc1ccc(-c2noc(CC3CCCN(Cc4cccc(F)c4C)C3)n2)cc1` (centres undefined), 40 µM. For the molecule `CN(C)CCN(C)Cc1ccc(F)cc1NS(=O)(=O)c1ccc(Cl)c(Cl)c1`, the 50% inhibitory concentration (IC50) was 7.9 µM. As for `COc1ccc(-c2ccc3nnc(-c4ccc(O)c(OC)c4)n3c2)cn1`, the half-maximal inhibitory concentration (IC50) was 4 µM.

On to `Nc1nc(-c2ccccn2)nc(-n2nc(-c3cccc(C(F)(F)F)c3)cc2N)n1`, for which the IC50 is 10 µM.

`CC(C)c1sc(Cl)nc1C(=O)NCCc1nc(C(=O)Nc2ccc3c(c2)OCO3)cs1`: the IC50 was 4 µM.

Turning to `COc1ccc(C(=O)Nc2cc(C(F)(F)F)ccc2N2CCOCC2)c(OC)c1`, the IC50 is 5 µM.

Take `COc1ccc2c(Cl)c(C(=O)N3CCC3)sc2c1Cl`: the IC50 is > 50 µM (inactive). With `O=C(Nc1nc(-c2ccc(F)cc2)cs1)c1ccc([N+](=O)[O-])s1`, the IC50 is 0.63 µM. With `COCCn1c(-c2ccccc2)cnc1NCc1ccccc1OC`, the IC50 was > 50 µM (inactive). For `NC(=O)c1ncc(N[C@@H]2CCCNC2)nc1Nc1cccc(Cl)c1`, the IC50 is 2.5 µM.

On to `CNc1cc(C)nc(C2CN(C(=O)c3n[nH]c4ccccc34)CCO2)c1` (centres undefined), for which the IC50 was > 50 µM (inactive). For the molecule `CN(Cc1ccc(C(N)=O)cc1)C(c1ccc(F)cc1)c1cccnc1` (centres undefined), the IC50 is > 50 µM (inactive). On to `COc1cc(C2SCC(=O)Nc3c2c(C)nn3-c2nc3ccccc3s2)cc(OC)c1O` (centres undefined), for which the IC50 is 6.3 µM. Regarding `CNC(=O)C1Cc2ccccc2N1C(=O)Cc1ccccc1` (centres undefined), the IC50 was > 50 µM (inactive). For `CCOc1ccc(OCC(=O)N2c3ccccc3CC2C(=O)NC)cc1` (centres undefined), the IC50 was > 50 µM (inactive). Turning to `Cc1cccc(NS(=O)(=O)c2cnc3sc(C)cn3c2=O)c1`, the IC50 was > 50 µM (inactive).

In the case of `COc1ccc(-c2cc(C)no2)cc1S(=O)(=O)Nc1ccc(C)c(C)c1`, the half-maximal inhibitory concentration (IC50) was 7.9 µM. `O=C(NCCNc1noc(-c2ccc([N+](=O)[O-])cc2)n1)c1ccc(Cl)cc1`: the IC50 was > 50 µM (inactive). In the case of `COc1ccc2ncc(=O)n(CCN3CCOC(CNCc4ccc(C(F)(F)F)cc4F)C3)c2n1` (centres undefined), the IC50 was 40 µM. As to `COc1ccnc2[nH]cc(-c3cc(C(=O)N[C@H](CO)c4ccccc4)co3)c12`, the half-maximal inhibitory concentration (IC50) was 25 µM. As for `Cc1nn(-c2nc3ccccc3[nH]2)c2c1C(c1ccc(O)cc1)CC(=O)N2` (centres undefined), the IC50 is 0.79 µM.

For the molecule `Nc1nc(-c2ccccn2)nc(-n2nc(-c3ccccc3)cc2N)n1`, the IC50 was 2 µM. Turning to `Cc1nc2c(-c3cccs3)c(C)nn2c(NCCO)c1C`, the IC50 was > 50 µM (inactive).

For `CC(C)COC(=O)Nc1ccc(N2CCC(CNS(=O)(=O)c3ccccc3)CC2)c(F)c1`, the IC50 was 4 µM. In the case of `COc1ccc(CNc2nsc3ccccc23)cc1OC`, the IC50 is 3.2 µM. As to `Cc1nccn1C1CCCN(C(=O)c2cc3c(F)cccc3s2)C1` (centres undefined), the IC50 is 5 µM.

Take `CC(=O)Nc1nc(-c2cc(C)ccc2C)c(C)s1`: the IC50 is > 50 µM (inactive). As for `CCCCN(C(=O)c1ccc(NC(=O)C(C)C)cc1)c1ccccc1`, the IC50 is 1 µM. As for `COc1ccc(CN2CCCCC2c2nc(-c3cccnc3)no2)cc1` (centres undefined), the figure is > 50 µM (inactive). For the molecule `CC(Cn1ccnc1)NC(=O)C1CC1c1cccc(Cl)c1Cl` (centres undefined), the IC50 is 16 µM. With `CCC(CC)C(=O)Nc1ccc(-c2nnc(-c3ccc(OC)cc3)o2)cc1` the figure was > 50 µM (inactive). As for `Clc1ccc(OCCN2CCCCC2c2cccnc2)c(Cl)c1` (centres undefined), the IC50 was 5 µM. Consider `O=C(NCC1CCCCC1)c1cc(=O)c2ccccc2o1`, for which the IC50 was 5 µM.

In the case of `N#Cc1cnc(Nc2cccc(CCN3CCOCC3)c2)nc1Nc1ccccc1C(N)=O`, the IC50 is 2.5 µM. `Cc1ccc2onc(Nc3ccnc(Nc4cccc(S(C)(=O)=O)c4)n3)c2c1`: the half-maximal inhibitory concentration (IC50) was 5 µM. Take `O=C(NCC(c1cccnc1)N1CCc2ccccc2C1)C(=O)Nc1cccc(Cl)c1` (centres undefined): the half-inhibitory concentration (IC50) was 1.3 µM. `Cc1nn(-c2ccccc2)nc1CNC(=O)CN(Cc1ccccn1)Cc1ccccn1`: the IC50 was 7.9 µM. Turning to `c1ccc(-c2nc(NC3CCCC3)c3ccccc3n2)nc1`, the IC50 is 4 µM. As for `Cc1ccc(C)c(OC2CCN(C(=O)C(C)n3ccnc3)CC2)c1` (centres undefined), the figure is 2.5 µM. As to `COc1ccc(C(=O)Nc2ccc(NC(=O)CO)cc2)cc1`, the IC50 was > 50 µM (inactive). `CCN(Cc1ccncc1)Cc1ccc(NC(=O)c2cc(-c3ccc(F)cc3)n[nH]2)cc1`: the IC50 is 16 µM. With `CC(C)c1cc(Nc2cc(Cc3ccccc3)nc(NC3CCC(O)CC3)n2)n[nH]1` (centres undefined) the figure was 3.2 µM. Regarding `Cc1cccc(Nc2nc(-c3ccccn3)cs2)n1`, the IC50 was 4 µM. Turning to `Cc1nc(-c2nc(NCc3ccc(Cl)cc3)c3cccnc3c2O)n[nH]1`, the IC50 was 2 µM. `CC(=O)NC1(c2ccccc2)CCN(CC(=O)Nc2ccccc2-c2ccccc2)CC1`: the IC50 is 20 µM.

As to `CC1CCCCN1C(=O)NCCc1coc(-c2ccc(F)cc2)n1` (centres undefined), the IC50 is > 50 µM (inactive). For the molecule `Cc1[nH]n2c(=O)c3c(nc2c1-c1ccc(Br)cc1)CCCC3`, the half-inhibitory concentration (IC50) is 10 µM. On to `COc1cccc(C(=O)[C@H]2C[C@@H]2CN(Cc2cccnc2)Cc2cccnc2)c1`, for which the half-inhibitory concentration (IC50) is 0.16 µM.

Regarding `Nc1nccc(-c2csc(Nc3ccc(Cl)cc3)n2)n1`, the IC50 was 4 µM. As for `NC(=O)c1cc(F)ccc1Nc1nc(NC2CCC(O)CC2)ncc1Br` (centres undefined), the figure is 1.6 µM; as for `CC(c1ccccn1)N(C)Cc1nc2ccccc2n1C(C)C` (centres undefined), 10 µM; as for `CCC(=O)N1N=C(c2ccc3c(c2)CCCC3)Sc2c1ncn2C(=O)CC`, 25 µM. Regarding `Cc1ncsc1CNc1cnc(-c2ccc3c(c2)OCCO3)c(-c2cnn(C)c2)c1`, the IC50 was 25 µM. Regarding `O=c1cc(NCCCNCc2cc(C(F)(F)F)cs2)[nH]c2ccccc12`, the IC50 was > 50 µM (inactive).

For `O=C(Cn1cnc2c(-c3ccccc3)csc2c1=O)N1CCCCC1`, the IC50 was > 50 µM (inactive). With `COc1cnc2ccc(=O)n(CCN3CCC(NC(=O)Cc4ccc(Cl)c(Cl)c4)CC3)c2c1` the figure was 5 µM. With `CCc1ccc2nc(NC(=O)c3cc(N4CCOCC4)ccn3)sc2c1` the figure was 2 µM; with `c1ccc2c(CCOc3nccnc3-c3ccncc3)c[nH]c2c1`, 5 µM.

As to `COc1ccccc1C=CCN1C[C@H]2CCC[C@@H](C1)C2(O)c1cccnc1` (some centres undefined), the IC50 was > 50 µM (inactive).

Turning to `CC(=O)NCCNc1cc(-c2ccnc(Nc3cccc(Cl)c3)n2)ccn1`, the IC50 is 0.32 µM. For the molecule `Cc1nn(C2CCS(=O)(=O)C2)c(C)c1CN(C)C(=O)C=Cc1sc2ccccc2c1Cl` (centres undefined), the IC50 was 13 µM. For `C[C@@H](Oc1cc(-n2cnc3cc(N)ccc32)sc1C(N)=O)c1ccccc1Cl`, the concentration for half-maximal inhibition (IC50) was 3.2 µM. For the molecule `O=C(NCCc1ccn(-c2ccccc2)n1)C1CCCCC1`, the IC50 is > 50 µM (inactive). With `C=CCOCC1Cn2nc([N+](=O)[O-])nc2O1` (centres undefined) the figure was > 50 µM (inactive). With `O=C(CSc1ccc(F)cc1)N[C@@H](Cc1cnc[nH]1)C(=O)NCCc1ccccc1`, the IC50 was > 50 µM (inactive). Take `Cn1nc(-c2ccc(NC(=O)Cc3ccccc3Cl)cc2)c2c(N)ncnc21`: the IC50 is > 50 µM (inactive). For `COc1cc(Nc2nccc(Nc3onc(C)c3C)n2)cc(S(=O)(=O)C2CCOCC2)c1`, the IC50 was 40 µM. Turning to `Cc1ccc2sc(NC(=O)Cn3cnc([N+](=O)[O-])n3)nc2c1`, the IC50 is > 50 µM (inactive). Turning to `COc1ccc(NC(=O)c2ccc(NC(=O)CN(c3ccccc3C)S(C)(=O)=O)cc2)cc1`, the IC50 was > 50 µM (inactive).

Consider `Cc1c(C(C)NC(=O)Nc2cccc(Cl)c2)sc2ncnn12` (centres undefined), for which the IC50 was 2 µM. With `Cc1ccc(NC(=O)c2ccc([N+](=O)[O-])s2)cc1S(=O)(=O)N1CCOCC1`, the IC50 was 2 µM. Take `COc1ccc(-c2nc3ncccc3o2)cc1NC(=O)c1cccs1`: the IC50 was 5 µM. Turning to `Cc1cc(C)n(-c2nc(NC(C)C)nc(NC(C)(C)C)n2)n1`, the IC50 is 3.2 µM. In the case of `COc1ccc(-c2csc(NC(=O)c3ccc([N+](=O)[O-])s3)n2)cc1`, the IC50 was 3.2 µM. Regarding `O=C(CCCn1cnc([N+](=O)[O-])n1)Nc1cccc(Cl)c1`, the IC50 was > 50 µM (inactive). With `CC(C)(C)Nc1nc(Nc2ccc3c(c2)CS(=O)(=O)C3)nc2[nH]ccc12`, the IC50 is 7.9 µM. `O=C(Nc1cccc(Cl)c1)N1CCCCC1c1cccnc1` (centres undefined): the IC50 was 3.2 µM.

Turning to `Cc1nn2c(NCCCO)c3c(nc2c1-c1cccs1)CCC3`, the IC50 was 2 µM. For `Cc1ccc2ccc(C(Nc3ccccn3)c3cccnc3)c(O)c2n1` (centres undefined), the IC50 is 0.4 µM.

These data come from PubChem BioAssay AID1159560 (GlaxoSmithKline (GSK), 2015).
